The text below walks through data of patent US20260306502A1, “MITOCHONDRIAL UNCOUPLERS FOR TREATMENT OF METABOLIC DISEASES AND CANCER” (Mito Biopharma, LLC, priority 2022, published 2026).

This test has as its system C2C12 cells. The test can be described thus: Mitochondrial uncoupling activity by oxygen consumption rate (OCR) assay, Seahorse, in presence of oligomycin. It counts as cell-based, mouse. The note with it: Mus musculus, C2C12; in the presence of oligomycin 2.5 μM; read-out: COCR-min: minimal concentration increasing OCR in the presence of oligomycin. The procedure:
By definition, mitochondrial uncoupling is the decoupling of mitochondrial electron transport chain activity (mitochondrial oxidation) from ATP synthesis by mitochondrial ATP synthase. Technically, mitochondrial uncoupling activity is defined by the ability of a chemical compound to induce oxygen consumption of cells or isolated mitochondria in the presence of a mitochondrial ATP synthase inhibitor such as oligomycin. Accordingly, mitochondrial uncoupling activity was determined by oxygen consumption rate assay with a Seahorse XF96 or a Seahorse XF24 instrument following the vendor's instruction, using mouse myoblast C2C12 cells grown in a medium containing 10% fetal bovine serum. OCR was measured stepwise under the following conditions: first under normal growth conditions; then. OCR was measured after oligomycin was added to reach a final concentration of 2.5 μM); then OCR was measured after the compound was further added at varying concentrations. Finally, rotenone and antimycin A were added to confirm that the measurement was mitochondrial oxygen consumption (rotenone and […] mitochondrial electron transport chain inhibitors).
COCR-min the minimal concentration required for each compound to induce OCR in the presence of oligomycin, of disclosed compounds, was also determined by varying the final concentration of the compound added to the Seahorse OCR analysis experiment as described above (FIG. 2, varying testing compound concentration). Table 8 summarizes the mitochondrial uncoupling activity of disclosed compounds, as represented by COCR-min.

For `COCOCc1cc(Cl)cc(C(=O)Nc2nc3ccc(C(F)(F)F)cc3s2)c1O` [Compound 1, 5-chloro-2-hydroxy-3-((methoxymethoxy)methyl)-N-(6-(trifluoromethyl)benzo[d]thiazol-2-yl)benzamide], the minimal effective concentration is < 5 µM. On to `COCCOCc1cc(Cl)cc(C(=O)Nc2nc3ccc(OC(F)(F)F)cc3s2)c1O` [Compound 5, 5-chloro-2-hydroxy-3-((2-methoxyethoxy)methyl)-N-(6-(trifluoromethoxy)benzo[d]thiazol-2-yl)benzamide], for which the minimal effective concentration was 5 to 10 µM. Under `COCCOCc1cc(Cl)cc(C(=O)Nc2cnc(C(F)(F)F)cn2)c1O` [Compound 6, 5-chloro-2-hydroxy-3-((2-methoxyethoxy)methyl)-N-(5-(trifluoromethyl)pyrazin-2-yl)benzamide] stands 5 to 10 µM; under `COCCOCc1cc(Cl)cc(C(=O)Nc2nc3ccc(F)cc3s2)c1O` [Compound 8, 5-chloro-N-(6-fluorobenzo[d]thiazol-2-yl)-2-hydroxy-3-((2-methoxyethoxy)methyl)benzamide], < 5 µM.

As for `CN(C)CCc1cc(Cl)cc(C(=O)Nc2ccc(C(F)(F)F)cc2Cl)c1O` [Compound 18, 5-chloro-N-(2-chloro-4-(trifluoromethyl)phenyl)-3-(2-(dimethylamino)ethyl)-2-hydroxybenzamide], the minimal effective concentration is < 5 µM. With `CC(=O)N1CCN(Cc2cc(Cl)cc(C(=O)Nc3nc4ccc(C(F)(F)F)cc4s3)c2O)CC1` [Compound 19, 3-((4-acetylpiperazin-1-yl)methyl)-5-chloro-2-hydroxy-N-(6-(trifluoromethyl)benzo[d]thiazol-2-yl)benzamide], the minimal effective concentration fell in the range of 5 to 10 µM. Under `COCCOCc1cc(Cl)cc(C(=O)Nc2ccc(C(F)(F)F)nc2)c1O` [Compound 20, 5-chloro-2-hydroxy-3-((2-methoxyethoxy)methyl)-N-(6-(trifluoromethyl)pyridin-3-yl)benzamide] stands 5 to 10 µM; under `COCCOCc1cc(Cl)cc(C(=O)Nc2cnc(C(F)(F)F)nc2)c1O` [Compound 21, 5-chloro-2-hydroxy-3-((2-methoxyethoxy)methyl)-N-(2-(trifluoromethyl)pyrimidin-5-yl)benzamide], > 10 µM.

As for `COCCNCc1cc(Cl)cc(C(=O)Nc2nc3ccc(C(F)(F)F)cc3s2)c1O` [Compound 22, 5-chloro-2-hydroxy-3-(((2-methoxyethyl)amino)methyl)-N-(6-(trifluoromethyl)benzo[d]thiazol-2-yl)benzamide], the minimal effective concentration was < 5 µM. As to `COCCOCCN(C)Cc1cc(Cl)cc(C(=O)Nc2nc3ccc(C(F)(F)F)cc3s2)c1O` [Compound 24, 5-chloro-2-hydroxy-3-(((2-(2-methoxyethoxy)ethyl)(methyl)amino)methyl)-N-(6-(trifluoromethyl)benzo[d]thiazol-2-yl)benzamide], the minimal effective concentration is < 5 µM. Consider `CN1CCN(Cc2cc(Cl)cc(C(=O)Nc3nc4ccc(C(F)(F)F)cc4s3)c2O)CC1` [Compound 28, 5-chloro-2-hydroxy-3-((4-methylpiperazin-1-yl)methyl)-N-(6-(trifluoromethyl)benzo[d]thiazol-2-yl)benzamide], for which the minimal effective concentration is < 5 µM. Take `O=C(Nc1nc2ccc(C(F)(F)F)cc2s1)c1cc(Cl)cc(CN2CCC(O)C2)c1O` (stereo not shown) [Compound 30, 5-chloro-2-hydroxy-3-((3-hydroxypyrrolidin-1-yl)methyl)-N-(6-(trifluoromethyl)benzo[d]thiazol-2-yl)benzamide]: the minimal effective concentration was > 10 µM.

With `CC(=O)NC1CCN(Cc2cc(Cl)cc(C(=O)Nc3nc4ccc(C(F)(F)F)cc4s3)c2O)C1` (stereo not shown) [Compound 33, 3-((3-acetamidopyrrolidin-1-yl)methyl)-5-chloro-2-hydroxy-N-(6-(trifluoromethyl)benzo[d]thiazol-2-yl)benzamide], the minimal effective concentration was > 10 µM.
